Measurements reported in patent US5599808A, “Aqueous indolocarbazole solutions” (Cephalon, Inc., priority 1995, dated 1997).
In brackets after ≈: the same amount, converted by molar mass. One block for each compound: values may come before it.

Columns and labels:
[1] = cited from earlier work; for insolubility in water: Nakanishi et al.
physchem = details: organic solvent or mixture
Protocol: In general, a solution of the concentrate can be prepared by combining a dispersant such as polyvinylpyrrolidone C-30 and a selected organic solvent such as propylene glycol into a beaker. The mixture is continuously stirred until completely dissolved. Solid PVP or other solution components may take 1-2 hours to dissolve completely at room temperature.
An amount of an indolocarbazole, for example, staurosporine, K-252a, or any one of indolocarbazole A, B, or C (Table 1) can each be individually weighed and added to a small aliquot of the aqueous solution, resulting in a 10 mg/ml solution after the indolocarbazole completely dissolves. Alternatively, a mixture of indolocarbazoles may be combined, weighed, and added to a small aliquot of the aqueous solution resulting in a 10 mg/ml solution after the indolocarbazole completely dissolves. An indolocarbazole solution can be stirred or shaken vigorously overnight. Any undissolved indolocarbazole is removed by standard centrifugation or filtration techniques. The concentration of solubilized indolocarbazole can be determined by reversed phase HPLC using a UV detector (290 nm).
The following HPLC conditions are used to determine the concentration of an indolocarbazole:
HPLC Column: Zorbax Rx C-18 4.6×250 mm, 5 micron particle size
Prior to injection of an indolocarbazole solution, there is allowed a 10 minute equilibration time.
Fifty g of PEG-400 were added to 50 ml of water and the mixture vigorously stirred until completely dissolved. One mg of either K-252a, staurosporine or the indolocarbazoles B or C (see Table 1) were added individually to a 100 μl aliquot of the PEG-400 solution and the resulting mixture was shaken overnight. The solution was clarified by centrifugation at 1000 rpm for 10 minutes. The supernatant was saved and any residue discarded. Ten μl of the supernatant was removed, diluted with DMSO (100:1) and the concentration of dissolved K-252a determined by HPLC.
Same as example 1 except that PEG-600 was used instead of PEG-400.
Same as example 1 except that PEG-1000 was used instead of PEG-400.
Same as example 1 except that 48 ml of water was used and 2 g of benzyl alcohol was added to the PEG-400 solution.
Same as example 2 except that 48 ml of water was used and 2 g of benzyl alcohol was added to the PEG-600 solution.
Same as example 3 except that 48 ml of water was used and 2 g of benzyl alcohol was added to the PEG-1000 solution.
2.5 g of benzyl alcohol was added to 47.5 g of PEG-400 and, in a separate container, 2.5 g of Pluronic F68 was added to 47.5 ml of water. Each solution was stirred until completely dissolved, then each solution was combined and stirred until homogeneous. One mg of K-252a was added to 100 μl of the solution and the resulting mixture was shaken overnight. The solution was clarified by centrifugation at 1000 rpm for 10 minutes. Ten (10) μl of supernatant was removed, diluted with DMSO (100:1), and the concentration of dissolved K-252a determined by HPLC.
Same as example 7 except that Pluronic™ L61 was used instead of Pluronic™ F68.
Same as example 7 except that Pluronic™ L64 was used instead of Pluronic™ F68.
Same as example 7 except that Tween™ 20 was used instead of Pluronic™ F68.
Same as example 7 except that Tween™ 80 was used instead of Pluronic™ F68.
Same as example 7 except that PVP was used instead of Pluronic™ F68 and PEG-300 was used instead of PEG-400.
Same as example 12 except that PEG-400 was used instead of PEG-300 and indolocarbazoles A, B or C were each solubilized individually in addition to K-252a.
Same as example 12 except that PEG-600 was used instead of PEG-300 and indolocarbazoles A, B or C were each solubilized individually in addition to K-252
Same as example 12 except that PEG-1000 was used instead of PEG-300.
Ten (10) g of Triton X-100 was added to 38 ml of water and the mixture was stirred thoroughly.

[2] = Protocol: In a flask, 10 g of PVP (k value of 17) was added to 990 grams of propylene glycol. This mixture was stirred until the PVP was completely dissolved. Two hundred fifty (250) mg of compound A (Table 1) was added to 10 ml of the above solution and the mixture was stirred until compound A was completely dissolved. This solution is called Indolocarbazole Propylene Glycol Concentrate (IPGC).
To test for the stability of an indolocarbazole in this solution, 1 ml aliquots of IPGC were removed and placed in small amber colored vials and kept at 4° C room temperature (about 25° C.), 37° C, and 60° C for 4, 7, 14 and 30 days. The sample at 4° C was kept in a refrigerator and received light when a door was opened. The sample at room temperature was placed on the laboratory bench and exposed to the fluorescent lights of the room during the day. The samples at 37° C and 60° C were kept in small incubators essentially in the dark. A 1 ml aliquot of the same IPGC was added to a clear vial and that vial was kept at 25° C in 300 foot candles of light for 4, 7, 14 and 30 days. At each interval of time, an aliquot of IPGC was removed from each vial, diluted 200 fold in DMSO and the concentration of compound A determined by reversed phase HPLC using a UV detector (290 nm).
In this example, compound A was further diluted in Indolocarbazole Diluent Solution. […]

[3] = peg 400/ba/pvp/h2o, Concentration Obtained
[4] = peg 600/ba/pvp/h2o, Concentration Obtained
[5] = peg 600/ba/pvp/h2o, Concentration Obtained (saturation level)
[6] = peg 1000/ba/pvp/h2o, Concentration Obtained
[7] = 50% peg 400, 50% h2o, Concentration Obtained, Example 1: 50% PEG 400, 50% H2O, target 10 mg/ml
[8] = 50% peg 600, 50% h2o, Concentration Obtained, Example 2: 50% PEG 600, 50% H2O, target 10 mg/ml
[9] = 50% peg 1000, 50% h2o, Concentration Obtained, Example 3: 50% PEG 1000, 50% H2O, target 10 mg/ml
[10] = peg 400/ba/h2o, Concentration Obtained, Example 4: 50% PEG 400, 2% BA, 48% H2O, target 10 mg/ml
[11] = peg 600/ba/h2o, Concentration Obtained, Example 5: 50% PEG 600, 2% BA, 48% H2O, target 10 mg/ml
[12] = peg 600/ba/pvp/h2o, Concentration Obtained (saturation level), Example 22: 50% PEG 600, 2% BA, 10% PVP, 38% H2O, 10 mg added
[13] = peg 1000/ba/h2o, Concentration Obtained, Example 6: 50% PEG 1000, 2% BA, 48% H2O, target 10 mg/ml

Compound: C[C@@H]1O[C@@H](n2c3ccccc3c3c4c(c5c6ccccc6[nH]c5c32)CNC4=O)[C@H](O)[C@H](O)[C@H]1O [Compound K-252d]
- insolubility in water [1]: insolubility
- solubility in non-aqueous, toxic solvents [1]: soluble in non-aqueous, toxic solvents
- solubility in water [1]: insoluble in water

Compound: O=C1NCc2c1c1c3ccccc3[nH]c1c1[nH]c3ccccc3c21 [Compound K-252c]
- insolubility in water [1]: insolubility
- solubility in non-aqueous, toxic solvents [1]: soluble in non-aqueous, toxic solvents
- solubility in water [1]: insoluble in water

Compound: CC12OC(CC1(O)C(=O)O)n1c3ccccc3c3c4c(c5c6ccccc6n2c5c31)CNC4=O (centres unmarked) [Compound K-252b]
- solubility in non-aqueous, toxic solvents [1]: soluble in non-aqueous, toxic solvents

- solubility thermodynamic (physchem; 50% peg 400, 50% h2o, Concentration Obtained): 750 µg/mL (≈ 1.34 mM)
- solubility thermodynamic (physchem; 50% peg 600, 50% h2o, Concentration Obtained): 500 µg/mL (≈ 0.897 mM)
- solubility thermodynamic (physchem; 50% peg 1000, 50% h2o, Concentration Obtained): 720 µg/mL (≈ 1.29 mM)
- solubility thermodynamic (physchem; peg 400/ba/h2o, Concentration Obtained): 1010 µg/mL (≈ 1.81 mM)
- solubility thermodynamic (physchem; [3]): 4000 µg/mL (≈ 7.17 mM)
- solubility thermodynamic (physchem; peg 600/ba/h2o, Concentration Obtained): 890 µg/mL (≈ 1.6 mM)
- solubility thermodynamic (physchem; [4]): 4600 µg/mL (≈ 8.25 mM)
- solubility thermodynamic (physchem; [5]): 4600 µg/mL (≈ 8.25 mM)
- solubility thermodynamic (physchem; peg 600/ba/triton x-100/h2o, Concentration Obtained): 4630 µg/mL (≈ 8.3 mM)
- solubility thermodynamic (physchem; peg 600/ba/tween 80/h2o, Concentration Obtained): 4790 µg/mL (≈ 8.59 mM)
- solubility thermodynamic (physchem; peg 1000/ba/h2o, Concentration Obtained): 800 µg/mL (≈ 1.43 mM)
- solubility thermodynamic (physchem; [6]): 6000 µg/mL (≈ 10.8 mM)
- solubility thermodynamic (physchem; peg 1000/ba/pvp/h2o, Concentration Obtained (saturation level)): 5000 µg/mL (≈ 8.97 mM)
Compound: CC[S+]([O-])Cc1ccc2c(c1)c1c3c(c4c5ccccc5n5c4c1n2C1CC(O)(C(=O)OC)C5(C)O1)CNC3=O (centres unmarked) [Compound C]

- solubility thermodynamic (physchem; [3]): 10000 µg/mL (≈ 22.1 mM)
- solubility thermodynamic (physchem; [4]): 10000 µg/mL (≈ 22.1 mM)
- solubility thermodynamic (physchem; [5]): 40000 µg/mL (≈ 88.2 mM)
- solubility thermodynamic (physchem; [6]): 10000 µg/mL (≈ 22.1 mM)
- Stability of Compound A in IPGC ([2]; 0 min): 100%
- loss of activity in IPGC ([2]; propylene glycol with pvp, 720 h): 13.3%
Compound: COC1(CO)CC2OC1(C)n1c3ccccc3c3c4c(c5c6ccccc6n2c5c31)C(=O)NC4 (centres unmarked) [Compound A]

Compound: CN[C@@H]1C[C@H]2O[C@@](C)([C@@H]1OC)n1c3ccccc3c3c4c(c5c6ccccc6n2c5c31)C(=O)NC4 [Staurosporine, staurosporine]
- solubility thermodynamic (physchem; [7]): 710 µg/mL (≈ 1.52 mM)
- solubility thermodynamic (physchem; [8]): 1890 µg/mL (≈ 4.05 mM)
- solubility thermodynamic (physchem; [9]): 1650 µg/mL (≈ 3.54 mM)
- solubility thermodynamic (physchem; [10]): 1210 µg/mL (≈ 2.59 mM)
- solubility thermodynamic (physchem; [11]): 1890 µg/mL (≈ 4.05 mM)
- solubility thermodynamic (physchem; [12]): 8400 µg/mL (≈ 18 mM)
- solubility thermodynamic (physchem; peg 600/ba/pvp/h2o, Concentration Obtained, Example 18: 50% PEG 600, 2% BA, 10% PVP, 38% H2O, target 10 mg/ml): 8410 µg/mL (≈ 18 mM)
- solubility thermodynamic (physchem; peg 600/ba/triton x-100/h2o, Concentration Obtained, Example 16: 50% PEG 600, 2% BA, 10% Triton X-100, 38% H2O, target 10 mg/ml): 7590 µg/mL (≈ 16.3 mM)
- solubility thermodynamic (physchem; peg 600/ba/tween 80/h2o, Concentration Obtained, Example 17: 50% PEG 600, 2% BA, 10% Tween 80, 38% H2O, target 10 mg/ml): 4600 µg/mL (≈ 9.86 mM)
- solubility thermodynamic (physchem; [13]): 1680 µg/mL (≈ 3.6 mM)

Compound: COC(=O)C1(O)CC2OC1(C)n1c3ccccc3c3c4c(c5c6cc(O)ccc6n2c5c31)C(=O)NC4 (centres unmarked) [Compound B]
- solubility thermodynamic (physchem; [7]): 3150 µg/mL (≈ 6.52 mM)
- solubility thermodynamic (physchem; [8]): 2680 µg/mL (≈ 5.54 mM)
- solubility thermodynamic (physchem; [9]): 4440 µg/mL (≈ 9.18 mM)
- solubility thermodynamic (physchem; [10]): 3260 µg/mL (≈ 6.74 mM)
- solubility thermodynamic (physchem; peg 400/ba/pvp/h2o, Concentration Obtained, Example 13: 47.5% PEG 400, 2.5% BA, 2.5% PVP, 47.5% H2O, target 10 mg/ml): 10000 µg/mL (≈ 20.7 mM)
- solubility thermodynamic (physchem; [11]): 3590 µg/mL (≈ 7.43 mM)
- solubility thermodynamic (physchem; peg 600/ba/pvp/h2o, Concentration Obtained (saturation level), Example 20: 47.5% PEG 600, 2.5% BA, 2.5% PVP, 47.5% H2O, 10 mg added): 10000 µg/mL (≈ 20.7 mM)
- solubility thermodynamic (physchem; [12]): 16400 µg/mL (≈ 33.9 mM)
- solubility thermodynamic (physchem; peg 600/ba/pvp/h2o, Concentration Obtained, Example 14: 47.5% PEG 600, 2.5% BA, 2.5% PVP, 47.5% H2O, target 10 mg/ml): 10000 µg/mL (≈ 20.7 mM)
- solubility thermodynamic (physchem; [13]): 5020 µg/mL (≈ 10.4 mM)
- solubility thermodynamic (physchem; peg 1000/ba/pvp/h2o, Concentration Obtained, Example 19: 40% PEG 1000, 2% BA, 10% PVP, 48% H2O, target 10 mg/ml): 10000 µg/mL (≈ 20.7 mM)
